One experiment relates to thrombin. The experiment in a line: More sensitive thrombin activity assay: hydrolysis of fluorogenic substrate Z-GPR-afc (fluorescence at 500 nm). It counts as biochemical, human. The conditions noted are these: fluorescence at 500 nm (excitation at 400 nm). Here is the method:
(§1) Assays of human a-thrombin and human trypsin were performed at 25° C. in 0.05M TRIS buffer pH 7.4, 0.15M NaCl, 0.1% PEG. Trypsin assays also contained 1 mM CaCl2.
(§2) In certain studies with potent inhibitors (Ki <10 nM) where the degree of inhibition of thrombin was high, a more sensitive activity assay was employed. […] Concentrations of stock solutions of Z-GPR-afc were determined from measurements of absorbance at 380 nm of the 7-amino-4-trifluoromethyl coumarin produced upon complete hydrolysis of an aliquot of the stock solution by thrombin.
(§3) Activity assays were performed by diluting a stock solution of substrate at least tenfold to a final concentration 0.5 Km into a solution containing enzyme or enzyme equilibrated with inhibitor. Times required to achieve equilibration between enzyme and inhibitor were determined in control experiments. Initial velocities of product formation in the absence (Vo) or presence of inhibitor (Vi) were measured. Assuming competitive inhibition, and that unity is negligible compared Km /[S], […] (where [S], [I], and e respectively represent the total concentrations, of substrate, inhibitor and enzyme), the equilibrium constant (Ki) for dissociation of the inhibitor from the enzyme can be obtained from the dependence of Vo /Vi on [I] shown in equation 1.

Another experiment concerns human thrombin. The experiment in a line: In vitro assay for determining proteinase inhibition: human thrombin (sar-PR-pna hydrolysis at 405 nm; Z-GPR-afc for potent inhibitors). It is filed as biochemical. The conditions noted are these: 25° C., pH 7.4; chromogenic substrate. Here is the method: (§4) In vitro assay for determining proteinase inhibition
as §1, §2, §3

The next experiment has as its system human trypsin. The experiment is described as follows: In vitro assay for determining proteinase inhibition: human trypsin (sar-PR-pna hydrolysis at 405 nm). It is filed as biochemical. The conditions noted are these: 25° C., pH 7.4, 1 mM CaCl2; chromogenic substrate. The procedure:
as §4, §1, §3

Non-standard residues stand in square brackets, D forms with d. Residues, ends and D or L forms follow the SMILES beside them. *: point of attachment. AFC = O=c1cc(C(F)(F)F)c2ccc(N*)cc2o1; pNA = O=[N+]([O-])c1ccc(N*)cc1; Cbz = O=C(OCc1ccccc1)*; Sar = CNCC(=O)O

Turning to `N=C(N)NCCC[C@H](NC(=O)[C@@H]1CCCN1C(=O)CNC(=O)OCc1ccccc1)C(=O)Nc1ccc2c(C(F)(F)F)cc(=O)oc2c1` [Z-GPR-afc, Cbz-Gly-Pro-Arg-7-amino-4-trifluoromethylcoumarin] (Cbz-Gly-Pro-Arg-{AFC}), in the experiment on thrombin, the Km came out at 27 µM. Take `CNCC(=O)N1CCC[C@H]1C(=O)N[C@@H](CCCNC(=N)N)C(=O)Nc1ccc([N+](=O)[O-])cc1` [sar-PR-pna, sarcosine-Pro-Arg-p-nitroanilide] (H-[Sar]-Pro-Arg-pNA): the values for the Km with human thrombin and in the experiment on human trypsin were 125 µM and 59 µM, respectively.

For orientation: Km means the substrate concentration at which the rate is half of its maximum.

Source of the values: US5792761A, “Thrombin inhibitors” (Merck & Co., Inc., priority 1997, dated 1998).
